According to PMC11091243, “PD-L1 targeted peptide demonstrates potent antitumor and immunomodulatory activity in cancer immunotherapy” (Frontiers in Immunology, 2024):
Residues, ends and D or L forms follow the SMILES beside them. No end group written: not given here. *: point of attachment. FITC = O=C1OC2(c3ccc(O)cc3Oc3cc(O)ccc32)c2ccc(NC(=S)*)cc21

Assays:
PD-1/PD-L1 binding = biological target: T1, PD-1/PD-L1 binding (Homo sapiens, UniProt Q9NZQ7); experiment: ELISA competition of peptides with PD-1 for binding to PD-L1; conditions: n = 3, effect increases with peptide concentration
T1 construct: PD-1: 10377-H08H
T1 sequence (Q9NZQ7 19-239 limits assumed): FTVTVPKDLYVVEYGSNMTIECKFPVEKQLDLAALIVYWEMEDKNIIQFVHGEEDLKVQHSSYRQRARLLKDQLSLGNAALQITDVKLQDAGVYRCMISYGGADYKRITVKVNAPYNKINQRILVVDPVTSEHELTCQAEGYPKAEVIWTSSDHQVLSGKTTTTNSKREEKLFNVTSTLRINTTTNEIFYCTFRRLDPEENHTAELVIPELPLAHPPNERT
Method: After seven phages were grown and purified, the solution was diluted 10 times to produce eight gradients. To ascertain the phage’s affinity for PD-L1, an ELISA test was run. Briefly, 96-well plates were filled with 150 µL of PD-L1 ([…]) in assay diluent (BioLegend, San Diego, CA), and incubated at 4°C overnight. 5% BSA in water was used to block the wells for two hours at 4°C. Following washing, 100 µL of phage diluent was added to each well, and they were shaken for two hours at room temperature. The wells were then treated with HRP-conjugated anti-M13 antibody at dose of 1:5000. With 100 µL of HRP substrate, the reaction was observed, and the OD410 was determined. By deducting the OD value of each phage binding to BSA-coated wells from the OD value of that phage binding to PD-L1, the specific binding of each phage to PD-L1 was computed. Three duplicate runs of this assay were made. GraphPad Prism 6 software was used to compute each phage binding affinity by nonlinear regression and convert it to a Scatchard plot. ELISA was used to evaluate the candidate peptides capacity to inhibit PD1/PD-L1 binding. The subsequent stages were the same as those previously outlined. Following incubation, OD410 was determined by goat anti-rabbit monoclonal antibody that had been HRP-labeled and rabbit anti-human PD-L1 protein monoclonal antibody.
To assess the effect of PPL-C peptide interference, PD-L1 binding to PD-1 was investigated using ELISA and cell-based analysis. For the ELISA, 100 μL of mouse PD-L1 in PBS was coated in each well of a 96-well plate and incubated the plate at 4°C overnight. On the second day, 1% BSA in PBST was used to block the plate. Each well was then filled with 200 nmol/L biotinylated PD-1 and FITC-labeled PPL-C peptides (at final concentrations of 40, 20, 10, 5, or 2.5 μmol/L) before 1.5 hours incubating at room temperature. After two PBST washes, the relative FITC fluorescence intensity was measured using a Cytation 3 instrument. […] After two PBST washes, the Cytation 3 device was used to detect PE fluorescence intensity. […] Samples were analyzed by flow cytometry.

[1] = system: splenic lymphocyte subsets of CT26-bearing Balb/c mice; experiment: Flow cytometry of spleen lymphocytes of CT26-bearing mice after treatment; format: in vivo; conditions: CT26-bearing Balb/c mice, 14 days after treatment; Figure 5D
Method: (§1) The mice’s tumor volumes were measured by calipers after they were randomly allocated to various treatment groups. Every day tumor volumes were measured along axes (a and b) that are orthogonal to one another, and they were estimated by the equation tumor volume = π/6 × a × b^2. After the tumor was established (approximately 7 days), each group was subcutaneously injected with PPL-C (6 or 11 mg/kg), control peptide (11 mg/kg), endotoxin-free PD-L1 antibody (200 μg), or control antibody, following specific treatment procedures outlined in the flow chart. The Kaplan-Meier technique was used to determine survival differences for each group, and the log-rank test using the survival R package version 2.38-3 was applied to get the overall p-value.
To differentiate lymphocytes, spleen monocytes were separated via isodensity centrifugation. For flow cytometry evaluation, cell-surface and intracellular staining was achieved through reagents from BD Biosciences or Biolegend, following previously described protocols. Re-suspending the 1× 10^6 cells in 100 μL of PBS before incubating them with the appropriate antibodies. Data were collected using a BD Biosciences FACSCalibur flow cytometer, Germany, and analyzed using FlowJo 7.6 software, USA. Based on scatter signals and 7-Amino-actinomycin D fluorescence, dead cells, and cell debris were removed from the study.

CT26 tumor = format: in vivo, mouse; conditions: reduced dose, s.c. around the tumor every day or every other day, n = 6, P<0.001
Method: The investigators conducting the animal studies were not blinded. […] The mice were then randomized into different treatment groups.
as §1

Competition with PD-1 to bind PD-L1 (blocking of PD-L1/PD-1) (PD-1/PD-L1 binding)	Molecule	Percentage of NK cells in spleen (CD49b/Nkp46, upper right quadrant) [1]	Survival time of CT26 tumor-bearing mice (CT26 tumor)
blocked moderately	SHESWLPAYVLGSGGGSK-NH2 [PL-20]	–	–
blocked moderately	CC[C@H](C)[C@H](NC(=O)[C@H](Cc1c[nH]c2ccccc12)NC(=O)[C@H](CO)NC(=O)[C@@H](NC(=O)[C@H](Cc1c[nH]cn1)NC(=O)[C@@H](N)CO)[C@@H](C)O)C(=O)N[C@@H](CC(C)C)C(=O)N[C@@H](Cc1ccc(O)cc1)C(=O)NCC(=O)N[C@@H](CCC(=O)O)C(=O)N[C@H](C(=O)NCC(=O)N[C@@H](Cc1c[nH]c2ccccc12)C(=O)NCC(=O)NCC(=O)NCC(=O)N[C@@H](CO)C(=O)N[C@@H](CCCCNC(=S)Nc1ccc2c(c1)C(=O)OC21c2ccc(O)cc2Oc2cc(O)ccc21)C(N)=O)[C@@H](C)O [PL-8] (H-SHTSWILYGETGWGGGSK(FITC)-NH2; N-terminus assumed)	–	–
–	SMQYADHPVNTGGGGSK-NH2 [Control peptide, scrambled control peptide, reference compound]	10.80%	53 days
